Measured values reported in patent US20070203066A1, “Compositions and methods for inhibiting cellular proliferation” (priority 2005, published 2007).
Read-outs that look alike come from different tables or passages of the source. Non-standard residues stand in square brackets, D forms with d. Primed or numbered codes have the meaning given here. No end group written: not given here. Ida = iminodiacetic acid linker, its two carboxyls bind the Lys side-chain amines of two peptides, giving a homodimer; Ida(3) = iminodiacetic acid linker, Lys side-chain amines bound to its two carboxyl groups; Ida(4) = iminodiacetic acid linker (dimerization linker bound to lysine side chain); Ida″ = iminodiacetic acid linker bound to the Lys side-chain amine, forming a dimer; Phg = N[C@H](C(=O)O)c1ccccc1; ATA = not defined here

Tested on: HUVECs
Assay type: cell-based
Summary of the method: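 HUVECs seeded at 5,000 cells/well in EBM with 2% FCS, adhered ≥12 hours, then stimulated with bFGF 10 ng/ml or VEGF 5 ng/ml plus varying peptide concentrations. After 48 hours at 37 ° C, 5% CO2, proliferation inhibition read by BrdU incorporation.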

[1] = HUVEC proliferation, bFGF at 10 ng/ml or VEGF at 5 ng/ml, 48 hours, BrdU incorporation, read-out: IC50 on HUVECs

Question: “487 (Ac-ARRRRQPVAIKF; not fully specified (residue 11); also: homodimer: Lys11 side chain bound to Ida linker (Boc on Ida N)) [compound 487]” was tested. Which IC50 [1] did it give?
Answer: Its IC50 is 10 to 30 µM.

Question: For “451 (Ac-NRRRRQAVAIVFK-NH2; also: homodimer via Ida linker at K13) [compound 451]”, which IC50 [1] is on record?
Answer: The IC50 was over 30 µM.

Question: For “349 (Ac-ARRRRQRVAIYPK-NH2; not fully specified (residue 13); also: homodimer of residues 1-13 via Ida linker on Lys13 side chain) [compound 349]”, which IC50 [1] is on record?
Answer: Its IC50 is over 30 µM.

Question: For “385 (Ac-ARRRRQMVAIYFK-NH2; not fully specified (residue 13); also: homodimer via Ida linker on Lys13 side chain, Ida amine Boc) [compound 385]”, which IC50 [1] is on record?
Answer: Its IC50 is under 10 µM.

Question: With “488 (Ac-PRRRNQAVAIKF; not fully specified (residue 11); also: homodimer via Ida linker on Lys11 side chain) [compound 488]” as the compound, how does the IC50 [1] read?
Answer: Its IC50 is 10 to 30 µM.

Question: With KTKRKAAKQRVKIAYEEIFVQNM [compound 54] as the compound, how does the IC50 [1] read?
Answer: Its IC50 is over 30 µM.

Question: “186 (Ac-RRHRRQRVRIIF; also: homodimer via C-terminal Lys linker) [compound 186]” was tested. Which IC50 [1] did it give?
Answer: Its IC50 is under 10 µM.

Question: With KTKRKRKKQAAKIAYEEIFVQNM [compound 73] as the compound, how does the IC50 [1] read?
Answer: The IC50 was over 30 µM.

Question: “282 (Ac-RRRRAQHVAIYFK-NH2; not fully specified (residue 13); also: homodimer: Lys13 side chain bound to Ida linker) [compound 282]” was tested. Which IC50 [1] did it give?
Answer: Its IC50 is under 10 µM.

Question: How did the IC50 [1] turn out when “513 (Ac-ARRRRIRVAIYFK; not fully specified (C-terminus); also: homodimer via Ida linker at Lys13 side chain) [compound 513]” was run?
Answer: The IC50 was 10 to 30 µM.

Question: How did the IC50 [1] turn out when “303 (Ac-RRRRRQAVRIQIQFK(Ida)-NH2; also: homodimer via Ida linker on Lys15 side chain) [compound 303]” was run?
Answer: The IC50 was under 10 µM.

Question: For “486 (Ac-ARRRRQSVAIKF; not fully specified (residue 11); also: homodimer: Lys11 side chain bound to Ida linker (Boc on Ida N)) [compound 486]”, which IC50 [1] is on record?
Answer: Its IC50 is under 10 µM.

Question: “168 (Ac-RRRRRQRVRIIFK; also: homodimer via GP3 linker on Lys13 side chains) [compound 168]” was tested. Which IC50 [1] did it give?
Answer: The IC50 was under 10 µM.

Question: With “270 (Ac-RRRRRQAVAINFK-NH2; not fully specified (residue 13); also: homodimer: Lys13 side chain bound to Ida linker) [compound 270]” as the compound, how does the IC50 [1] read?
Answer: The IC50 was under 10 µM.

Question: How did the IC50 [1] turn out when KTKRKRKKQRVKIAYE [compound 35] was run?
Answer: The IC50 was over 30 µM.

Question: Which IC50 [1] does the source give for “175 (Ac-RRARRQRVRIIF; also: homodimer via C-terminal Lys linker) [compound 175]” here?
Answer: Its IC50 is under 10 µM.

Question: “187 (Ac-RRRHRQRVRIIF; also: dimer: C-terminal Phe bound to an amino group of a Lys linker, 2 chains per Lys) [compound 187]” was tested. Which IC50 [1] did it give?
Answer: Its IC50 is under 10 µM.

Question: How did the IC50 [1] turn out when KRKRKKQRVKIAYEEIFVQNM [compound 20] was run?
Answer: The IC50 was over 30 µM.

Question: “269 (Ac-ARRRRQRVAIEFK-NH2; not fully specified (residue 13); also: homodimer: side chain of Lys13 bound to an Ida linker) [compound 269]” was tested. Which IC50 [1] did it give?
Answer: The IC50 was 10 to 30 µM.

Question: For “191 (Ac-AARRRQRVRIIF; also: dimer: C-terminal Phe bound to an amino group of a Lys linker, 2 chains per Lys) [compound 191]”, which IC50 [1] is on record?
Answer: The IC50 was under 10 µM.

Question: With “340 (Ac-RRHRHQHVRIYFK(Ida(3))-NH2; also: homodimer via Lys13 side chain, Ida linker (Ida amino group Boc)) [compound 340]” as the compound, how does the IC50 [1] read?
Answer: The IC50 was under 10 µM.

Question: Which IC50 [1] does the source give for RKRKKQRVKIAYEEIF [compound 67] here?
Answer: Its IC50 is over 30 µM.

Question: For TKRKRKKQRVKIAYEEIFVQNM [compound 19], which IC50 [1] is on record?
Answer: Its IC50 is over 30 µM.

Question: “490 (Ac-PRRRRQSVAIK(Ida″)F; also: homodimer via Ida linker on Lys11 side chain) [compound 490]” was tested. Which IC50 [1] did it give?
Answer: Its IC50 is 10 to 30 µM.

Question: How did the IC50 [1] turn out when “356 (Ac-A[dR]RRRQRVAIIFK; not fully specified) [compound 356]” was run?
Answer: The IC50 was over 30 µM.

Question: How did the IC50 [1] turn out when “379 (Ac-ARRRRQRVAISFK-NH2; not fully specified (residue 13); also: homodimer via Ida linker on Lys13 side chain, Ida amine Boc) [compound 379]” was run?
Answer: The IC50 was under 10 µM.

Question: With “377 (Ac-ARRRRQRVAIMFK-NH2; not fully specified (residue 13); also: homodimer via Ida linker on Lys13 side chain, Boc on Ida amine) [compound 377]” as the compound, how does the IC50 [1] read?
Answer: The IC50 was under 10 µM.

Question: How did the IC50 [1] turn out when KTKRKRKKQRVKIIFVQNA [compound 105] was run?
Answer: Its IC50 is under 10 µM.

Question: With “275 (Ac-RARRRQAVAIYFK-NH2; not fully specified (residue 13); also: homodimer via Ida linker on Lys13 side chain) [compound 275]” as the compound, how does the IC50 [1] read?
Answer: The IC50 was under 10 µM.

Question: For “204 (Ac-RRARRQAVRIIF; also: dimer: C-terminal Phe bound to an amino group of a Lys linker, 2 chains per Lys) [compound 204]”, which IC50 [1] is on record?
Answer: Its IC50 is under 10 µM.

Question: “352 (Ac-ARRRRQRVAIYIK-NH2; not fully specified (residue 13); also: homodimer of residues 1-13 via Ida linker on K13 side chain) [compound 352]” was tested. Which IC50 [1] did it give?
Answer: The IC50 was under 10 µM.

Question: Which IC50 [1] does the source give for “483 (Ac-QRRRRQAVAIKF; not fully specified (residue 11); also: homodimer via Ida linker on Lys11 side chain) [compound 483]” here?
Answer: The IC50 was under 10 µM.

Question: With “326 (Ac-RRRRHQHVRIYFK; not fully specified (residue 13, C-terminus); also: homodimer via Ida linker on Lys13 side chain) [compound 326]” as the compound, how does the IC50 [1] read?
Answer: Its IC50 is under 10 µM.

Question: For KTKRKRKKQRVKIAYEEIM [compound 42], which IC50 [1] is on record?
Answer: The IC50 was over 30 µM.

Question: “398 (Ac-ARRRRQAVLIYFK; not fully specified (residue 13, C-terminus); also: homodimer of residues 1-13 via Ida linker at Lys13 side chain) [compound 398]” was tested. Which IC50 [1] did it give?
Answer: Its IC50 is under 10 µM.

Question: For KTKRKRKKQRVKIAAEEIFVQNM [compound 49], which IC50 [1] is on record?
Answer: Its IC50 is over 30 µM.

Question: How did the IC50 [1] turn out when “216 (Ac-ARRRRQAVAIIF; also: dimer: Phe C-termini joined via Lys linker) [compound 216]” was run?
Answer: Its IC50 is 10 to 30 µM.

Question: Which IC50 [1] does the source give for “313 (Ac-RARRRQAVAIGFK(Ida)-NH2; also: homodimer via Ida linker on Lys13 side chain) [compound 313]” here?
Answer: Its IC50 is 10 to 30 µM.

Question: “472 (Ac-PRRRGQAVAIYFK(Ida(3)); not fully specified (C-terminus); also: homodimer via Ida linker on Lys13 side chain) [compound 472]” was tested. Which IC50 [1] did it give?
Answer: The IC50 was over 30 µM.

Question: For “431 (Ac-ARRRRQAVAIYK(Ida(4))F; also: homodimer via Ida linker at K12) [compound 431]”, which IC50 [1] is on record?
Answer: The IC50 was under 10 µM.

Question: Which IC50 (48 h) does the source give for CC[C@H](C)[C@H](NC(=O)[C@H](CCCNC(=N)N)NC(=O)[C@@H](NC(=O)[C@H](CCCNC(=N)N)NC(=O)[C@H](CCC(N)=O)NC(=O)[C@H](CCCNC(=N)N)NC(=O)[C@H](CCCNC(=N)N)NC(=O)[C@H](CCCNC(=N)N)NC(=O)[C@H](CCCNC(=N)N)NC(=O)[C@H](CCCNC(=N)N)NC(C)=O)C(C)C)C(=O)N[C@H](C(=O)N[C@@H](Cc1ccccc1)C(=O)N[C@@H](CCCCNC(=O)CN(CC(=O)NCCCC[C@H](NC(=O)[C@H](Cc1ccccc1)NC(=O)[C@@H](NC(=O)[C@@H](NC(=O)[C@H](CCCNC(=N)N)NC(=O)[C@@H](NC(=O)[C@H](CCCNC(=N)N)NC(=O)[C@H](CCC(N)=O)NC(=O)[C@H](CCCNC(=N)N)NC(=O)[C@H](CCCNC(=N)N)NC(=O)[C@H](CCCNC(=N)N)NC(=O)[C@H](CCCNC(=N)N)NC(=O)[C@H](CCCNC(=N)N)NC(C)=O)C(C)C)[C@@H](C)CC)[C@@H](C)CC)C(N)=O)C(=O)CCNC(=O)OC(C)(C)C)C(N)=O)[C@@H](C)CC [Peptide 167] here?
Answer: Its IC50 is under 10 µM.

Question: How did the IC50 [1] turn out when KTKRKRKKQRVKIIFVANM [compound 107] was run?
Answer: The IC50 was under 10 µM.

Question: KTKRKRKKQRVAIIFVQNM [compound 112] was tested. Which IC50 [1] did it give?
Answer: The IC50 was under 10 µM.

Question: Which IC50 [1] does the source give for KTKRKRKKQRVKIAYEENM [compound 41] here?
Answer: The IC50 was over 30 µM.

Question: How did the IC50 [1] turn out when “343 (Ac-ARRRRQRVAIY[Phg]K-NH2; not fully specified (residue 13); also: homodimer via Lys13 side chain, Ida linker) [compound 343]” was run?
Answer: The IC50 was under 10 µM.

Question: “305 (Ac-RRRRRQAVRIIK(Ida)VN; also: homodimer via Ida linker on Lys12 side chain) [compound 305]” was tested. Which IC50 [1] did it give?
Answer: The IC50 was under 10 µM.

Question: For “179 (Ac-RRRRRQRVAIIF; also: dimer: C-terminus of Phe12 of each chain bound to one amino group of a Lys linker) [compound 179]”, which IC50 [1] is on record?
Answer: Its IC50 is under 10 µM.

Question: With “258 (Ac-ARRRRQ[dR]VAIIFK-NH2; not fully specified (residue 13); also: homodimer via Ida linker on Lys13 side chains) [compound 258]” as the compound, how does the IC50 [1] read?
Answer: The IC50 was under 10 µM.

Question: How did the IC50 [1] turn out when “418 (Ac-ARRRRQPVAIYFK; not fully specified (residue 13, C-terminus); also: homodimer of residues 1-13 via Ida linker on K13 side chain) [compound 418]” was run?
Answer: Its IC50 is under 10 µM.

Question: With “459 (Ac-KRRRRQAVAIYF; not fully specified (residue 1); also: homodimer via Ida linker on Lys side chains, linker at 1 via Ida, other end not in the chain) [compound 459]” as the compound, how does the IC50 [1] read?
Answer: The IC50 was over 30 µM.

Question: For “446 (Ac-RRRRRQAVAIYFK(ATA); reading uncertain; also: homotrimer via Ata linker at K13) [compound 446]”, which IC50 [1] is on record?
Answer: Its IC50 is under 10 µM.

Question: For “442 (Ac-RRRRVQAVAIYFK(Ida(4)); not fully specified (C-terminus); also: homodimer via Ida linker at K13) [compound 442]”, which IC50 [1] is on record?
Answer: Its IC50 is under 10 µM.
